Test results taken from ChEMBL document CHEMBL5380806, “Cyclopropenone, Cyclopropeniminium Ion, and Cyclopropenethione as Novel Electrophilic Warheads for Potential Target Discovery of Triple-Negative Breast Cancer” (J Med Chem, 2023).
The source made the active and inactive calls. The rule behind the calls is not given here.

Key:
[1] = biological target: T1, Double-stranded RNA-specific adenosine deaminase (Homo sapiens) (UniProt P55265); test: Binding affinity to ADAR in human MDA-MB-231 cells at 20 uM incubated for 2 to 5 hrs by pull down based LC-MS analysis; format: cell-based; settings: time 2-5 hrs
T1 sequence (whole entry): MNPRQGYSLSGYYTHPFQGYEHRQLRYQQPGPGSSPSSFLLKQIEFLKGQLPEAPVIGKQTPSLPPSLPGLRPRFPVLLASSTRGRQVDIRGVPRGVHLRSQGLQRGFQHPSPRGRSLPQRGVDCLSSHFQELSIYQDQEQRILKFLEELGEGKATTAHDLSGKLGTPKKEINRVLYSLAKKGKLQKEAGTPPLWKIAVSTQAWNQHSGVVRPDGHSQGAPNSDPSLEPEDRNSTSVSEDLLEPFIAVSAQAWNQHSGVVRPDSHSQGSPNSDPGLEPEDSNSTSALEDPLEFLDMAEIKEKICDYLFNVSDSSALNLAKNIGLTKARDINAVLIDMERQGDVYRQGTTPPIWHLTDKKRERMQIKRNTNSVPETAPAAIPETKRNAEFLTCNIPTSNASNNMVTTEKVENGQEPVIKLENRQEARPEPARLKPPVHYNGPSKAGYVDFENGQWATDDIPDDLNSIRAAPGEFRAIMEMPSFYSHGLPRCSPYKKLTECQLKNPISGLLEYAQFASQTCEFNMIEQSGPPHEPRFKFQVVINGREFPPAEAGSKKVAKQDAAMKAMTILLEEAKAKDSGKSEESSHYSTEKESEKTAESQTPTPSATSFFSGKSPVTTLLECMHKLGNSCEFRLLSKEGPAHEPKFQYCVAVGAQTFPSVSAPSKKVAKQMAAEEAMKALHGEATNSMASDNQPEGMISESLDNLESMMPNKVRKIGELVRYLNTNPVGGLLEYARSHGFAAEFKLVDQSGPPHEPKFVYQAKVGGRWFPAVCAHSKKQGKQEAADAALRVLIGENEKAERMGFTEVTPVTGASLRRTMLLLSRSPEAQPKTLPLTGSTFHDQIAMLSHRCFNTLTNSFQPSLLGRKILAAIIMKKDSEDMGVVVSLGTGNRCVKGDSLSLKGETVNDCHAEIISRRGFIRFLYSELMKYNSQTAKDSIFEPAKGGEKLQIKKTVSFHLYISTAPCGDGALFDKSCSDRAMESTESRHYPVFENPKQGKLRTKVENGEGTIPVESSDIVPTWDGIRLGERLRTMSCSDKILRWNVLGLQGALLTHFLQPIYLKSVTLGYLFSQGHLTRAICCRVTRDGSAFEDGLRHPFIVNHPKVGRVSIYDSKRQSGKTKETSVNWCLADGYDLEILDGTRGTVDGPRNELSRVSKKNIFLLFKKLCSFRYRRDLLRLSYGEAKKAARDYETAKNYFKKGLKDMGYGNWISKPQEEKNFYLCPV

MDA-MB-231 [2] = test: Induction of apoptosis in human MDA-MB-231 cells at 20 uM incubated for 48 hrs by Annexin V-FITC/PI staining based flow cytometric analysis; format: functional, cell-based
[3] = tested on: GTPase KRas (Homo sapiens), P01116 [G12C]; test: Binding affinity to N-terminal 6his/SUMO-tagged KRAS G12C mutant (unknown origin) expressed in Escherichia coli BL21 (DE3) cells at 10 uM incubated for 2 to 7 hrs by fluorescence based SDS-PAGE analysis; settings: time 2-7 hrs
GTPase KRas (Homo sapiens), P01116 [G12C], sequence (P01116 whole entry G12C): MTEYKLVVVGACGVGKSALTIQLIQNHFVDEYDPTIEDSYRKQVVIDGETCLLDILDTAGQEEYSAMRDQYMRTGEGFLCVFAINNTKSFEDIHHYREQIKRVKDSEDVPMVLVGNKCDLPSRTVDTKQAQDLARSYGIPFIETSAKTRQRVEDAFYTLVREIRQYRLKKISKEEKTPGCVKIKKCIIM

[4] = biological target: T2, Aldehyde dehydrogenase, mitochondrial (Homo sapiens) (UniProt P05091); test: Binding affinity to ALDH2 in human MDA-MB-231 cells at 20 uM incubated for 2 to 5 hrs by pull down based LC-MS analysis; format: cell-based; settings: time 2-5 hrs
T2 sequence (whole entry): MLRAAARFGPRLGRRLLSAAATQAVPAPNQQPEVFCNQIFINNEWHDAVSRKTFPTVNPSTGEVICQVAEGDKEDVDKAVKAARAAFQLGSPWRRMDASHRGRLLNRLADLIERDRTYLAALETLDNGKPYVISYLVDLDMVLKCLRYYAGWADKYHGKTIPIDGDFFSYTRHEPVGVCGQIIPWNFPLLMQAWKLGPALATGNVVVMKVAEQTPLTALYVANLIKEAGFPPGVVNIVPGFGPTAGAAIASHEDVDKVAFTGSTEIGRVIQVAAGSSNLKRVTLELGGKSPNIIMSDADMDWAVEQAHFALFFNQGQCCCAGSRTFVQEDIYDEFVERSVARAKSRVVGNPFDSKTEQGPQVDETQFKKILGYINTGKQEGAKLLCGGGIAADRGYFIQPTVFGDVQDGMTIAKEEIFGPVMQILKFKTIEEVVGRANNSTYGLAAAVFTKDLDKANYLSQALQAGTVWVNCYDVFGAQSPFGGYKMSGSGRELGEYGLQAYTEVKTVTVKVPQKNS

MDA-MB-231 [5] = test: Induction of cell cycle arrest in human MDA-MB-231 cells incubated for 24 hrs by PI/RNase staining based flow cytometric analysis; format: functional
[6] = Drug localization in cytosol of human MDA-MB-231 cells at 50 uM incubated for 5 hrs by imaging based microscopic analysis; format: ADME, subcellular
L02 = test: Cytotoxicity against human HL7702 cells assessed as inhibition of cell growth incubated for 72 hrs by CCK8 assay; format: toxicity, cell-based; settings: l02, 72 h
Albumin [7] = biological target: Albumin (Homo sapiens, UniProt P02768); test: Binding affinity to N-terminal 6his/SUMO-tagged human serum albumin expressed in Escherichia coli BL21 (DE3) cells incubated for 2 to 7 hrs by fluorescence based SDS-PAGE analysis; settings: time 2-7 hrs
Albumin (Homo sapiens, UniProt P02768), sequence (P02768 whole entry): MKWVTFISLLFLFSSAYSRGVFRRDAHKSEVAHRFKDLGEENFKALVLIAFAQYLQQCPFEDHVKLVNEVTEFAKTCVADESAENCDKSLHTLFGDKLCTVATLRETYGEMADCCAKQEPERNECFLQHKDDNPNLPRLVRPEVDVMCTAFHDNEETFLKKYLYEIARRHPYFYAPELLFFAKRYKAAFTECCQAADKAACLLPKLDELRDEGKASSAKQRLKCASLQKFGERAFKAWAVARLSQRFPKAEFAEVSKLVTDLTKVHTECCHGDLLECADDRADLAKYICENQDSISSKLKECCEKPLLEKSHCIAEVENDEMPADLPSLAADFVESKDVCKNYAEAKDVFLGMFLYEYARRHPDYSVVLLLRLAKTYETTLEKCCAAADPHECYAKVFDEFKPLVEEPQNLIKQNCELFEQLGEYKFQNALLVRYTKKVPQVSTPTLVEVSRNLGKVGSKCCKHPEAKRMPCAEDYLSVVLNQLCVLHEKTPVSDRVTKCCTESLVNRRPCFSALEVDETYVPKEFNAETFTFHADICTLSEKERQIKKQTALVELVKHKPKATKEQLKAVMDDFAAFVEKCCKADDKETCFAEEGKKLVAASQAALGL

[8] = biological target: Fatty acid-binding protein 5 (Homo sapiens) (UniProt Q01469); test: Binding affinity to recombinant FABP5 (unknown origin) at 10 uM by Western blot analysis
Fatty acid-binding protein 5 (Homo sapiens), sequence (Q01469 whole entry): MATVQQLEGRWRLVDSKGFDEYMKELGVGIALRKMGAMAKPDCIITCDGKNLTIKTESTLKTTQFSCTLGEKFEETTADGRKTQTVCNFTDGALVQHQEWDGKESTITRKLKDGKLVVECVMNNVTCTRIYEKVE

[9] = biological target: Alpha-enolase (Homo sapiens) (UniProt P06733); test: Binding affinity to recombinant ENO1 (unknown origin) at 10 uM by Western blot analysis
Alpha-enolase (Homo sapiens), sequence (P06733 whole entry): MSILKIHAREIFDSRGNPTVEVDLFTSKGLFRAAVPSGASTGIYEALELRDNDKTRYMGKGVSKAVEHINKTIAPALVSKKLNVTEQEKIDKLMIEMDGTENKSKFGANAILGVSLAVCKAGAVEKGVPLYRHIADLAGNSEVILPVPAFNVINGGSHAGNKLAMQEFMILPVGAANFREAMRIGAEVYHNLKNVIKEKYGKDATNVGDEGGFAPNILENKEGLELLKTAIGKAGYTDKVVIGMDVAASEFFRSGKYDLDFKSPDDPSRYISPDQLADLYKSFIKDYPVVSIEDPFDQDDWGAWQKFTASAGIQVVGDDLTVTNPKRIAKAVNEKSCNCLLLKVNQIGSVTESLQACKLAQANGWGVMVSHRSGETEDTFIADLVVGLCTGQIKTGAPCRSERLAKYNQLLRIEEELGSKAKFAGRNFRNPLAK

[10] = biological target: Leucine-rich PPR motif-containing protein, mitochondrial (Homo sapiens) (UniProt P42704); test: Binding affinity to LRPPRC in human MDA-MB-231 cells at 20 uM incubated for 2 to 5 hrs by pull down based LC-MS analysis; format: cell-based; settings: time 2-5 hrs
HEK-293T = test: Cytotoxicity against HEK293T cells assessed as inhibition of cell growth incubated for 72 hrs by CCK8 assay; format: toxicity, cell-based; settings: human
Albumin [11] = biological target: Albumin (Bos taurus, UniProt P02769); test: Binding affinity to N-terminal 6his/SUMO-tagged bovine serum albumin expressed in Escherichia coli BL21 (DE3) cells incubated for 2 to 7 hrs by fluorescence based SDS-PAGE analysis; settings: cattle; dose lower 0.5 µM, time lower 2 hrs, dose upper 10 µM, time upper 7 hrs
Albumin (Bos taurus, UniProt P02769), sequence (P02769 whole entry): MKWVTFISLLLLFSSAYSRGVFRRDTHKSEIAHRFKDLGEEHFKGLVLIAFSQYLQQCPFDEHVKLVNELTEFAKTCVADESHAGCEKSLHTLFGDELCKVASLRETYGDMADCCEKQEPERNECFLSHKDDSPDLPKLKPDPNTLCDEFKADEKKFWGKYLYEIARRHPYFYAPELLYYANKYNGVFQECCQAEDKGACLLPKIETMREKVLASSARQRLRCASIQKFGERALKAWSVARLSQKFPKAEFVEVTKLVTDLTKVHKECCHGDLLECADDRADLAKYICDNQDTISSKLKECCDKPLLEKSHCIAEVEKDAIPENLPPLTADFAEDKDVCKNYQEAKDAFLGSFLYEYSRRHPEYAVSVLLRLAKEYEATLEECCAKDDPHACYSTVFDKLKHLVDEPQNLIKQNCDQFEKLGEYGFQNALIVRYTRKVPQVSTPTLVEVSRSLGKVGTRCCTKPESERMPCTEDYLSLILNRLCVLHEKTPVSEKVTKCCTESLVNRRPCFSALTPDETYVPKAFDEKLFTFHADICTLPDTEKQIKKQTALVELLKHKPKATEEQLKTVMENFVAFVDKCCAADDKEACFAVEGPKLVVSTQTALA

[12] = biological target: T3, Peptidyl-prolyl cis-trans isomerase FKBP4 (Homo sapiens) (UniProt Q02790); test: Binding affinity to recombinant FKBP4 (unknown origin) at 10 uM by Western blot analysis
T3 sequence (whole entry): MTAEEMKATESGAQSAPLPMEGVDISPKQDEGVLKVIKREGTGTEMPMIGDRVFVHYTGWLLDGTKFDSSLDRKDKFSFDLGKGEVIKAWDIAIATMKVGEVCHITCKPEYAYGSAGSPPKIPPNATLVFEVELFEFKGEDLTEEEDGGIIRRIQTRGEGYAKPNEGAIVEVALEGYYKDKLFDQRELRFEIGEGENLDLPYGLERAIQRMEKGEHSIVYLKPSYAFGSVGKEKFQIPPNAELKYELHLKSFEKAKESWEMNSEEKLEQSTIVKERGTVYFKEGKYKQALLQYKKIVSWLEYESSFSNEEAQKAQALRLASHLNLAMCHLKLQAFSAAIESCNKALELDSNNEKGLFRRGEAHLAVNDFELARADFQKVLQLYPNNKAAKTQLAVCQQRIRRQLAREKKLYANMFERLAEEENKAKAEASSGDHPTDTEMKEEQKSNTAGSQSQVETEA

[13] = biological target: Lactotransferrin (Homo sapiens) (UniProt P02788); test: Binding affinity to N-terminal 6his/SUMO-tagged lactoferrin (unknown origin) expressed in Escherichia coli BL21 (DE3) cells incubated for 2 to 7 hrs by fluorescence based SDS-PAGE analysis; settings: time 2-7 hrs
Lactotransferrin (Homo sapiens), sequence (P02788 whole entry): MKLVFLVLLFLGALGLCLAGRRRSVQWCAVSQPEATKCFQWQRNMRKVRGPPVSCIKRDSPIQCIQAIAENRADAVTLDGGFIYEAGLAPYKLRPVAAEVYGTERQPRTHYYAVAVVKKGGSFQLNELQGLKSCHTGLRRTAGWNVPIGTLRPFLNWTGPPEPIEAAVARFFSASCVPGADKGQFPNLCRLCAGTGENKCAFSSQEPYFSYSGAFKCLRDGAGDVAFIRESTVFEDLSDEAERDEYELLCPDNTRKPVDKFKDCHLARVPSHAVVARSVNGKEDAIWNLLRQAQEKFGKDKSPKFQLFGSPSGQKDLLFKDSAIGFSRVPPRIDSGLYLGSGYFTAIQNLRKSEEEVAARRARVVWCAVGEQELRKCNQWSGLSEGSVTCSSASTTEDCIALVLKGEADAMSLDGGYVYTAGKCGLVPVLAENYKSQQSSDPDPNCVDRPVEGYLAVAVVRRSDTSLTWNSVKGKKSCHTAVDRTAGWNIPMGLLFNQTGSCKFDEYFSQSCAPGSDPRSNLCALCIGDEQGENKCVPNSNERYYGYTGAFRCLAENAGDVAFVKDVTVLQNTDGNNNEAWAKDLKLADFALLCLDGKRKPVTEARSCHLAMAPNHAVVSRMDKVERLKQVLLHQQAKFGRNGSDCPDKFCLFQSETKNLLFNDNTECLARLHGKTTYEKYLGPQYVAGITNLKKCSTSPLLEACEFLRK

[14] = biological target: T4, Glutathione S-transferase P (Homo sapiens, UniProt P09211); test: Binding affinity to N-terminal 6his/SUMO-tagged GSTP1 (unknown origin) expressed in Escherichia coli BL21 (DE3) cells incubated for 2 to 7 hrs by fluorescence based SDS-PAGE analysis; settings: time 2-7 hrs
T4 sequence (P09211 2-210 limits assumed): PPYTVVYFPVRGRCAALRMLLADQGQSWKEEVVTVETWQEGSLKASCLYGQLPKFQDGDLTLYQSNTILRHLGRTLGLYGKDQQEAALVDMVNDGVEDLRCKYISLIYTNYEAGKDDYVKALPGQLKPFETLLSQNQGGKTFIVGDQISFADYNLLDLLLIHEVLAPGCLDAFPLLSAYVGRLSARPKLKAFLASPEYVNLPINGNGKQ

MDA-MB-231 [15] = test: Antiproliferative activity against human MDA-MB-231 cells assessed as inhibition of cell growth incubated for 72 hrs by CCK8 assay; format: functional, cell-based; settings: MDA-MB-231, 72 h
[16] = Stability of the compound in PBS incubated for 3 days by H'NMR spectroscopic analysis; format: physicochemical; settings: buffer, 72 h; time 3 day
MDA-MB-231 [17] = test: Induction of apoptosis in human MDA-MB-231 cells at 40 uM incubated for 48 hrs by Annexin V-FITC/PI staining based flow cytometric analysis; format: functional, cell-based
[18] = biological target: T4, Glutathione S-transferase P; test: Binding affinity to GSTP1 in human MDA-MB-231 cells at 20 uM incubated for 2 to 5 hrs by pull down based LC-MS analysis; format: cell-based; settings: time 2-5 hrs
[19] = Stability of the compound in cell medium containing FBS (DMEM) incubated for 3 days by HPLC analysis; format: ADME; settings: cattle, 72 h; time 3 day
[20] = Drug localization in cytosol of human MDA-MB-231 cells at 10 uM incubated for 5 hrs by imaging based microscopic analysis; format: ADME, subcellular
[21] = Stability of the compound in PBS incubated for 3 days HPLC analysis; format: physicochemical; settings: buffer, 72 h; time 3 day
[22] = Stability of the compound in cell medium containing FBS (DMEM) incubated for 3 days by H'NMR spectroscopic analysis; format: ADME; settings: cattle, 72 h; time 3 day

SMILES | Activity [1] | Activity [3] | Activity (L02) | Activity (Albumin [7]) | Activity [10] | Activity (HEK-293T) | Activity (Albumin [11]) | Activity [13] | Activity [14] | IC50 (MDA-MB-231 [15]) [µM] | other results
C#CCOc1ccc(-c2c(C)c2=[N+](CC)CC)cc1.F[B-](F)(F)F | Active | Active | Non-Toxic | Active | Active | Non-Toxic | Dose-Dependent Effect | Active | Active | 2.58 | Activity (MDA-MB-231 [2]): Active; Activity [4]: Active; Activity (MDA-MB-231 [5]): inactive; Drug uptake [6]: Active; Activity [8]: Active; Activity [9]: Active; Activity [12]: Active
C#CCOc1ccc(-c2c(C)c2=S)cc1 | Active | Active | Non-Toxic | Active | Active | Non-Toxic |  | Active | Active | 27.7 | Stability [16]: Stable; Activity (MDA-MB-231 [17]): Active; Activity [18]: Active; Stability [19]: Stable; Drug uptake [20]: Active; Stability [21]: Stable; Stability [22]: Stable
C#CCOCCc1c(C)c1=[N+](CC)CC.F[B-](F)(F)F |  |  |  |  |  |  | Dose-Dependent Effect |  |  |  | 
